ChEMBL document CHEMBL1135928, “Binding mode analysis of 3-(4-benzoyl-1-methyl-1H-2-pyrrolyl)-N-hydroxy-2-propenamide: a new synthetic histone deacetylase inhibitor inducing histone hyperacetylation, growth inhibition, and terminal cell differentiation” (J Med Chem, 2002)

Target: T1, Histone deacetylase 1 (Mus musculus, UniProt O09106)
Test: In vitro for anti-HDAC1 (Histone deacetylase 1) activity in mouse A20 cells
Type: cell-based

T1 sequence (O09106 whole entry): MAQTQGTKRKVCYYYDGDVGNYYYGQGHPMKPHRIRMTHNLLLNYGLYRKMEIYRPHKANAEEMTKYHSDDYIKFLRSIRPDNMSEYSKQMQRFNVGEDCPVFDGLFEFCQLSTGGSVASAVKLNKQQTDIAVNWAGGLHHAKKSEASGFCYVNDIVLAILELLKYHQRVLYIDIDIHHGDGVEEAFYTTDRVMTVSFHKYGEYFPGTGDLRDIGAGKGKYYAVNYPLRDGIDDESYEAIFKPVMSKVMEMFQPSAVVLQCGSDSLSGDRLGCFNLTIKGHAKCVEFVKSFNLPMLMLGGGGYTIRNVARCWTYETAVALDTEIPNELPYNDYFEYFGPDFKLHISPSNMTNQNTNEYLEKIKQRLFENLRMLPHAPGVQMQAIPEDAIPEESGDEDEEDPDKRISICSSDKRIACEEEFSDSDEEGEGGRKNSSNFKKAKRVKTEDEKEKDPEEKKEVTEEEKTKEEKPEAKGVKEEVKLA

`Cn1cc(C(=O)c2ccccc2)cc1/C=C/C(=O)NO` and `Cc1ccc(C(=O)c2cc(/C=C/C(=O)NO)n(C)c2)cc1` are within 1.5-fold of each other in IC50: 4.9 µM for the first, 4.5 µM for the second.

`CN(C)c1ccc(C(=O)c2cc(/C=C/C(=O)NO)n(C)c2)cc1` gave an IC50 of 4.2 µM.

Target: T1, Histone deacetylase 1
Test: Binding affinity towards HDAC1 (Histone deacetylase 1) in mouse A20 cells, expressed as binding constant (pKi)
Type: cell-based

`Cn1cc(C(=O)c2ccccc2)cc1/C=C/C(=O)NO` and `Cc1ccc(C(=O)c2cc(/C=C/C(=O)NO)n(C)c2)cc1` are within 1.5-fold of each other in Ki: 2.95 µM for the first, 2.69 µM for the second.

For `CN(C)c1ccc(C(=O)c2cc(/C=C/C(=O)NO)n(C)c2)cc1`, the Ki was 2.51 µM.
